Data on 14 compounds can be found in patent US10676438B2, “KCNQ2-5 channel activator” (Ono Pharmaceutical Co., Ltd., priority 2014, dated 2020).

Converted amounts (≈) assume the structure as drawn.

For one data set, the target named is Human KCNQ2/3 channel (Homo sapiens (Human), UniProt O43525+O43526). Description: Opening action with respect to KCNQ2/3 channel by depolarization stimulation (thallium influx, FLIPR). In kind it is cell-based. The conditions noted are these: concentration giving 50% of maximum reaction of retigabine (10 μM); human KCNQ2/3 expression CHO-DHFR- cells; 5 mM potassium and 0.5 mM thallium; read-out: KCNQ2/3 ECrtg50. The method, then:
Human KCNQ2/3 expression cells (CHO-DHFR-cells) were seeded in each well of 384 well plate (collagen-coated, black, clear bottom) at 0.5×10^4 cells/50 μL per well, and cultured in a MEM ALPHA medium (containing 10 vol % inactivated (56° C., 30 min) Fetal Bovine Serum and 100 IU/mL Penicillin—100 μg/mL Streptomycin—2 mM L-Glutamine) at 37° C. in 5% CO2 for 18 to 24 hours. The medium in the plate was removed. Then, incubation (room temperature, 60 minutes, light-shielded) was carried out in a loading buffer (prepared by the method described in the manual of FluxOR Thallium Detection Kit (Invitrogen, F10016, F10017)). KCNQ2/3 channel opening action (thallium influx into cells) by the depolarization stimulation (5 mM potassium and 0.5 mM thallium) was measured by FLIPR TETRA (Molecular Devices). The compound of the present invention had been treated five minutes before the depolarization stimulation, and the reaction induced by the depolarization stimulation was measured over time for 180 seconds. The channel opening action of the compound of the present invention was evaluated based on the change amount of the fluorescence intensity from the time before the depolarization stimulation to the time after the passage of 180 seconds. Thus, the concentration (ECrtg50) satisfying 50% of the fluorescence intensity change of maximum reaction (at the time of 10 μM-treatment) of retigabine under this experiment condition was calculated.

Data set [1] is described as follows: Evaluation of stability in human liver microsome. In kind it is in vitro ADME. Particulars: 5 μmol/L. The method, then: A test compound (10 mmol/L DMSO solution, 5 μL) was diluted with 50% acetonitrile aqueous solution (195 μL) to prepare 0.25 mmol/L solution.
To a reactor vessel which had been warmed to 37° C. in advance, 0.5 mg/mL of human liver microsome (Xenotech) and 245 μL of 0.1 M phosphate buffer solution (pH 7.4) including NADPH-Co-factor (BD Biosciences) were added, followed by preincubation for five minutes. Then, the above-mentioned test compound solution (5 μL) was added so as to start reaction (final concentration: 5 μmol/L). Immediately after the start, 20 μL was harvested and added to 180 μL of acetonitrile including an internal standard substance (warfarin) to stop the reaction. This solution (20 μL) was stirred with 180 μL of 50% acetonitrile aqueous solution on a plate equipped with a deproteinization filter. Then, the resulting mixture solution was subjected to suction filtration. The filtrate was adopted as a standard sample.
The above-mentioned reaction solution was incubated at 37° C. for 15 minutes, and 20 μL of the solution was added to 180 μL of cooled acetonitrile (including warfarin that is an internal standard substance) to stop the reaction. This solution (20 μL) was stirred with 180 μL of 50% acetonitrile aqueous solution on a plate equipped with a deproteinization filter, and then the resulting mixture solution was subjected to suction filtration. The filtrate was adopted as a reaction sample.
Residual rate (%) was obtained as follows: 1 μL of the sample solution was infused into LC-MS/MS (Discovery Max manufactured by Thermo Scientific), and a quotient obtained by dividing a peak area ratio of the reaction sample (peak area of test compound/peak area of internal standard substance) was divided by the peak area ratio of the standard sample was multiplied by 100.
A general note: Microsomes from liver hold many membrane-bound enzymes, among them those of drug oxidation.

The nature of data set [2]: Solubility test (DMSO precipitation method, Pharmacopoeia of Japan elution test second solution). It is filed as physicochemical. The conditions noted are these: aqueous buffer, kinetic from dmso stock; Pharmacopoeia of Japan elution test second solution pH=6.8, room temperature, five hours; quantitation range 5 to 100 μM. Here is the method: A calibration curve solution was prepared by diluting a test substance (10 mM DMSO solution) with acetonitrile and adding acetonitrile including an internal standard substance (candesartan) so as to be 0.1, 0.4, and 2 μM.
Sample solution was prepared as follows: 5 μL of the compound of the present invention (10 mM DMSO solution) was added to 495 μL of the Pharmacopoeia of Japan elution test second solution (pH=6.8), and the resulting mixture was stirred at room temperature for five hours. Then, the solution was placed into a solubility filter plate and subjected to suction filtration. The filtrate (20 μL) was diluted with acetonitrile, followed by adding acetonitrile including an internal standard substance ([…]).
The calibration curve and sample solutions in the amount of 5 μL were infused into LC-MS/MS (Discovery Max manufactured by Thermo Scientific) and subjected to quantitation (quantitation range: 5 to 100 μM).

Data set [3] deals with urinary bladder extracted from rat. Briefly: Relaxing action on urinary bladder extracted from rat (rat Magnus test). The conditions noted are these: concentration at which tension change rate is -20%; carbachol 1 μM-induced contraction of rat urinary bladder strips. Here is the method: Female Jcl Wistar rats (CLEA Japan, Inc., body weight in use: 170 to 200 g) were anesthetized by intraperitoneal administration of about 40 mg/kg of pentobarbital (Somnopentyl, Schering Plough Animal Health Corporation), and killed by bloodletting, followed by abdominal incision to extract the urinary bladder. Immediately, the extracted urinary bladder was immersed in ice-cooled Krebs buffer (Krebs Ringer bicarbonate buffer (Sigma-Aldlich Co.) containing sodium hydrogencarbonate (final concentration: 15 mM) and calcium chloride (final concentration: 2.5 mM)) which had been saturated with a mixed gas (95% O2, 5% CO2).
The urinary bladder bodies were cut in the longitudinal direction to prepare strip specimens (about 10×3 mm) on ice. Immediately, the prepared specimens were suspended in a Magnus tube with 500 mg of tension loaded. The tube was filled with Krebs buffer (37° C.) aerated with a mixed gas. Note here that specimens were prepared within 24 hours after extraction of the tissue.
When one hour or more had passed after the specimen was suspended, 2.5M KCl was added so that the final concentration became 100 mM, specimens showing contraction reaction were used.
Carbachol (a contraction-inducing substance) at the concentration of contraction of 1 μM was used to induce contraction. […] After the contraction reaction was stabilized, a physiological salt solution or the compound of the present invention was added in a cumulative manner from low concentration such that the final concentration became 1, 10, 100 nM, 1 and 10 μM.
The tension (mg) of the extracted urinary bladder was employed as an evaluation parameter. The tension was read by using analysis software WAVE THERMO 1000. Tension after addition of the contraction-inducing substance was set to 0%. The change rate of the tension after addition of the compound of the present invention relative to the tension after addition of the contraction-inducing substance was defined as tension change rate (%). The tension change rate (%) was adopted as an evaluation indicator. The tension change rate (%) is calculated from the following formula. Tension change rate (%)={Tension after addition of compound of the present invention and the like (mg)−Tension before addition of contraction-inducing substance (mg)}/{Tension after addition of contraction-inducing substance (mg)−Tension before addition of contraction-inducing substance (mg)}×100−100
The value at which the tension change rate (%) was −20% was calculated as IC20, and the value was adopted as an indicator of the relaxing action of the extracted urinary bladder.

Setting [4] is: human liver microsome 0.5 mg/mL, NADPH, 37° C., 15 minutes.

For the compound `C[C@@](O)(c1cc(Cl)c(NC(=O)NCc2ccc(Oc3ccc(F)cc3)cc2)c(Cl)c1)C(F)(F)F` [Example 22 (16), 1-{2,6-dichloro-4-[(2R)-1,1,1-trifluoro-2-hydroxy-2-propanyl]phenyl}-3-[4-(4-fluorophenoxyl)benzyl]urea], the EC50 at Human KCNQ2/3 channel came to 0.004 µM. In addition, in data set [1] (human, 15 min, pH 7.4), the Residual rate is given as 94%.
On the same counts, the results for `Cc1cc(C(O)C(F)(F)F)ccc1NC(=O)NCc1ccc(C(F)(F)F)cn1` (stereo not shown) [Example 60, 1-[2-methyl-4-(2,2,2-trifluoro-1-hydroxyethyl)phenyl]-3-{[5-(trifluoromethyl)-2-pyridinyl]methyl}urea] are 1.7 µM and 98%.
Broadly, the solubility is the concentration that dissolves in the medium under given conditions. High values mean much dissolved substance, low ones little dissolved substance. For `CC(O)(c1cc(Cl)c(NC(=O)NCc2cc3cc(F)ccc3[nH]2)c(Cl)c1)C(F)(F)F` (stereo not shown) [Example 5 (13), 1-[2,6-dichloro-4-(1,1,1-trifluoro-2-hydroxy-2-propanyl)phenyl]-3-[(5-fluoro-1H-indole-2-yl)methyl]urea], the EC50 on Human KCNQ2/3 channel worked out at 0.6 µM. For the same compound, in data set [1] (human, 15 min, pH 7.4), the Residual rate was 75%. The solubility at 5 h in data set [2] was determined as 81 µM (≈ 37.6 µg/mL).
The term IC20 denotes the point of the concentration-response curve where the effect stands at 20%. High values mean weaker potency, low ones greater potency. On to `O=C(NCc1nc(C(F)(F)F)no1)Nc1c(Cl)cc([C@H](O)C(F)(F)F)cc1Cl` [Example 35 (1), 1-{2,6-dichloro-4-[(1S)-2,2,2-trifluoro-1-hydroxyethyl]phenyl}-3-{[3-(trifluoromethyl)-1,2,4-oxadiazole-5-yl]methyl}urea], for which the EC50 at Human KCNQ2/3 channel amounted to 0.008 µM. The compound also registered a Residual rate in data set [1] (human, 15 min, pH 7.4) of 100%. For the same compound, the solubility at 5 h in data set [2] was 100 µM (≈ 45.3 µg/mL). The same compound had an IC20 in data set [3] of 0.02 µM.
`O=C(NCc1nc(C(F)(F)F)no1)Nc1c(Cl)cc([C@@H](O)C(F)(F)F)cc1Cl` [Example 32 (1), 1-{2,6-dichloro-4-[(1R)-2,2,2-trifluoro-1-hydroxyethyl]phenyl}-3-{[3-(trifluoromethyl)-1,2,4-oxadiazole-5-yl]methyl}urea]: on Human KCNQ2/3 channel, the EC50 was 0.007 µM. The same compound displayed a solubility at 5 h in data set [2] of 100 µM (≈ 45.3 µg/mL). The compound further had an IC20 in data set [3] of 0.02 µM.
Turning to `C[C@](O)(c1cc(Cl)c(NC(=O)NCc2ccc(OCC(F)(F)F)nc2)c(Cl)c1)C(F)(F)F` [Example 25 (6), 1-{2,6-dichloro-4-[(2S)-1,1,1-trifluoro-2-hydroxy-2-propanyl]phenyl}-3-{[6-(2,2,2-trifluoroethoxy)-3-pyridinyl]methyl}urea], the EC50 on Human KCNQ2/3 channel was 0.06 µM. In data set [1] (human, 15 min, pH 7.4), this compound came in with a Residual rate of 73%. Also, the solubility at 5 h in data set [2] amounted to 40 µM (≈ 20.2 µg/mL).
With `CC(O)(c1cc(Cl)c(NC(=O)NCc2ccc(C(F)(F)F)cn2)c(Cl)c1)C(F)F` (stereo not shown) [Example 75, 1-[2,6-dichloro-4-(1,1-difluoro-2-hydroxy-2-propanyl)phenyl]-3-{[5-(trifluoromethyl)-2-pyridinyl]methyl}urea], the EC50 at Human KCNQ2/3 channel stood at 0.4 µM. This compound also displayed a Residual rate in data set [1] (human, 15 min, pH 7.4) of 100%.
On to `C[C@@H](NC(=O)Nc1c(Cl)cc(C(C)(O)C(F)(F)F)cc1Cl)C1CC1` (stereo partly drawn) [Example 5 (20), 1-[(1R)-1-cyclopropylethyl]-3-[2,6-dichloro-4-(1,1,1-trifluoro-2-hydroxy-2-propanyl)phenyl]urea], for which the EC50 at Human KCNQ2/3 channel is 0.5 µM. This compound returned a Residual rate in data set [1] (human, 15 min, pH 7.4) of 91%. For the same compound, the concentration in solution in data set [2] (solubility at 5 h) came to 100 µM (≈ 38.5 µg/mL).
The corresponding values for `CC(O)(c1cc(Cl)c(NC(=O)NCCC(F)(F)F)c(Cl)c1)C(F)(F)F` (stereo not shown) [Example 5 (19), 1-[2,6-dichloro-4-(1,1,1-trifluoro-2-hydroxy-2-propanyl)phenyl]-3-(3,3,3-trifluoropropyl)urea] are 0.1 µM, 100% and 76 µM (≈ 31.4 µg/mL).
Take `C[C@](O)(c1cc(Cl)c(NC(=O)NCc2nc(C(F)(F)F)no2)c(Cl)c1)C(F)(F)F` [Example 26, 1-{2,6-dichloro-4-[(2S)-1,1,1-trifluoro-2-hydroxy-2-propanyl]phenyl}-3-{[3-(trifluoromethyl)-1,2,4-oxadiazole-5-yl]methyl}urea]: at Human KCNQ2/3 channel, the EC50 worked out at 0.04 µM. In data set [1] (setting [4]), the Residual rate amounted to 64%. This compound also had a solubility at 5 h in data set [2] of 59 µM (≈ 27.6 µg/mL). Moreover, in data set [3], the IC20 was 0.2 µM.
`CC(O)(c1cc(Cl)c(NC(=O)NC[C@@H]2CCCO2)c(Cl)c1)C(F)(F)F` (stereo partly drawn) [Example 5 (15), 1-[2,6-dichloro-4-(1,1,1-trifluoro-2-hydroxy-2-propanyl)phenyl]-3-[(2S)-tetrahydro-2-furanylmethyl]urea]: the EC50 at Human KCNQ2/3 channel was 2.3 µM. The compound also had a Residual rate in data set [1] (human, 15 min, pH 7.4) of 97%. Also, the concentration in solution in data set [2] (solubility at 5 h) came to 90 µM (≈ 36.1 µg/mL).
Take `C[C@@](O)(c1cc(Cl)c(NC(=O)NCc2nc(C(F)(F)F)no2)c(Cl)c1)C(F)(F)F` [Example 23, 1-{2,6-dichloro-4-[(2R)-1,1,1-trifluoro-2-hydroxy-2-propanyl]phenyl}-3-{[3-(trifluoromethyl)-1,2,4-oxadiazole-5-yl]methyl}urea]: the EC50 at Human KCNQ2/3 channel came out at 0.01 µM. In data set [1] (setting [4]), this compound gave a Residual rate of 100%. Further, the solubility at 5 h in data set [2] came out at 46 µM (≈ 21.5 µg/mL). In addition, the 20% effect concentration (IC20) in data set [3] turned out to be 0.1 µM.
As to `CC(C)(C)c1cc(CNC(=O)Nc2c(Cl)cc(C(C)(O)C(F)(F)F)cc2Cl)no1` (stereo not shown) [Example 13, 1-[2,6-dichloro-4-(1,1,1-trifluoro-2-hydroxy-2-propanyl)phenyl]-3-{[5-(2-methyl-2-propanyl)-1,2-oxazole 3-yl]methyl}urea], the EC50 at Human KCNQ2/3 channel stood at 0.01 µM. Also, in data set [2], the solubility at 5 h came to 69 µM (≈ 31.3 µg/mL).
With `C[C@@](O)(c1cc(Cl)c(NC(=O)NCc2ccc(C#N)cc2)c(Cl)c1)C(F)(F)F` [Example 22 (15), 1-(4-cyanobenzyl)-3-{2,6-dichloro-4-[(2R)-1,1,1-trifluoro-2-hydroxy-2-propanyl]phenyl}urea], the EC50 at Human KCNQ2/3 channel worked out at 0.2 µM. The compound further registered a Residual rate in data set [1] (human, 15 min, pH 7.4) of 93%.
